Experimental findings from patent EP0152574A1, “6-Ethoxy-4-methyl-benzothiazol-2(3H)-one, processes for its preparation and medicaments containing this compound” (priority 1983, dated 1985) are described below.

One series can be described thus: in vivo. As to conditions: rat, oral, 14 days observation, limits in brackets. The procedure: 3.) Die Bestimmung der akuten Toxizität erfolgte an Ratten beider Geschlechter mit einem Gewicht zwischen 120 und 150 g. Die Prüfsubstanzen wurden als Verreibung in l%iger Methylzellulose (2,0 ml/100 g Tier) per Schlundsonde appliziert. Die Berechnung der LD50 erfolgte nach […] u.

For the next series, the system named is Hefefieber der Ratte. The series is described as follows: Antipyretic action against yeast-induced fever. It counts as in vivo. Set-up: unit not given here. Conditions: rat, oral, 2 h after dosing; dose lowering yeast fever by 1°C; limits in brackets. The method, then:
2. Die Prüfung der antipyretischen Wirkung erfolgte gegen das durch subcutane Gabe von 100 mg Hefe/100 g Tier ausgelöste Fieber an 120-150 g schweren männlichen Ratten. Die Prüfsubstanzen wurden 4 Stunden nach Hefegabe als Verreibung in l%iger Methylzellulose (1,0 ml/100 g) per Schlundsonde verabfolgt. Aus der 2 Stunden danach gefundenen Veränderung der Rektaltemperatur gegenüber der der Kontrolltiere wurde nach linearer Regressionsanalyse eine ED-1,0°C als jene Dosis berechnet, die das Hefefieber um 1°C senkte.

Series [1] has as its system Glutathiongehalt der Mäuseleber. The series is described as follows: Effect on liver glutathione content (ELLMAN method). It counts as in vivo, Maus. The method, then:
4.) Der Einfluß auf den Glutathion-Gehalt der Leber wurde an männlichen Mäusen mit einem Gewicht zwischen 25 und 30 g untersucht. 2 Stunden nach oraler Gabe der Prüfsubstanz (als Verreibung in l%iger Methylzellulose, 0,2 ml/10 g Tier) wurde die Leber entnommen.
Für die prognostische Beurteilung einer Hepatotoxizität ist die Erschöpfung der Glutathionvorräte in der Leber ein geeigneter Indikator.
A general note: In Ellman's method for cholinesterases, released thiocholine reacts with DTNB.

In series [2] the test system is Entzündungsschmerz der Ratte. The series is described as follows: Inflammatory pain test according to RANDALL and SELITTO (yeast-inflamed paw, pain threshold). In kind it is in vivo. Conditions: 1.5 h; rat, oral, 90 min after dosing; dose raising pain threshold by 50 %; confidence limits in brackets. The method, then:
l.) Die Prüfung der Wirkung gegen den Entzündungsschmerz der Ratte erfolgte mit der Methode nach RANDALL u. SELITTO (Arch. int. Pharmacodyn. 111, 409 (1957)). Die Prüfsubstanzen wurden männlichen Ratten mit einem Gewicht zwischen 100 und 130 g als Verreibung in 1%iger Methylzellulose (1,0 ml/100 g Tier) 90 Minuten nach der subplantaren Hefegabe per Schlundsonde verabfolgt. Aus der 90 Minuten nach Gabe der verschiedenen Dosen der Prüfsubstanz gemessenen Schmerzschwelle wurde nach linearer Regressionsanalyse eine ED50 als jene Dosis ermittelt, die eine Anhebung der Schmerzschwelle um 50 % bewirkt.

For `COc1cc(C)c2[nH]c(=O)sc2c1` [Substanz B, 6-Methoxy-4-methyl-benzothiazol-2(3H)-on], the median lethal dose (LD50) at 336 h in the series “in vivo” was 7580 mg/kg. Also, the “ED-1,0 °C” value in the series with Hefefieber der Ratte is reported as 29,6 (25,0-34,0). Further, in series [1] (in vivo, po, 1000 mg/kg), the “Verminderung des Leberzellglutathion” value is listed as more than 50%, the “red. GSH x̄” value was 3,42 and the “Δ gegen Kontrollen” value is “- 56,4%”. For the same compound, the 50% effective dose (ED50) in series [2] is 23 mg/kg.

For the compound `CC(=O)Nc1ccc(O)cc1` [Substanz D, p-Hydroxy-acetanilid], in the series “in vivo”, the median lethal dose (LD50) at 336 h was determined as 3960 mg/kg. In the series on Hefefieber der Ratte, the “ED-1,0 °C” value is 123 (84,0-155). For the same compound, the “Δ gegen Kontrollen” value in series [1] (in vivo, po, 160 mg/kg) is “- 32,7%”; in series [1] (in vivo, po, 200 mg/kg), “- 51,3%”; in series [1] (in vivo, po, 250 mg/kg) it was “- 65,7%”; in series [1] (in vivo, po, 315 mg/kg), “- 82,4%”. Moreover, it took a dose of 215 mg/kg to reach the 50% effect level in series [2] (ED50).

As to `Cc1cc(C)c2[nH]c(=O)sc2c1` [Substanz C, 4,6-Dimethyl-benzothiazol-2(3H)-on], the “ED-1,0 °C” value in the series on Hefefieber der Ratte was 18,1 (11,3-23,7). Further, the “red. GSH x̄” value in series [1] (mouse liver, 2 h after oral 1000 mg/kg) is reported as 2,90 mMol/g. In addition, the “Verminderung des Leberzellglutathion” value in series [1] (single oral dose 1000 mg/kg, mouse, critical range = depletion by more than 50 %) is given as more than 50%. This compound gave an ED50 in series [2] of 49.7 mg/kg.

`CCOc1cc(C)c2[nH]c(=O)sc2c1` [Substanz A, 6-Ethoxy-4-methyl-benzothiazol-2(3H)-on] displayed a 50% lethal dose (LD50) at 336 h in “in vivo” of more than 4000 mg/kg. Moreover, the “ED-1,0 °C” value with Hefefieber der Ratte is 31,2 (25,1-36,5). In series [1] (in vivo, po, 1000 mg/kg), the “Verminderung des Leberzellglutathion” value is reported as “deutlich schwächer und unterhalb des kritischen Bereiches”, the “red. GSH x̄” value was 5,02 and the “Δ gegen Kontrollen” value was “- 36,0%”. Moreover, the 50% effect level in series [2] (ED50) was put at a dose of 24.1 mg/kg.

What is called LD50 is the dose expected to kill half of the subjects tested. One may read the ED50 as the dose that gives a 50% effect, or the effect in half of the subjects.
